Assay results from patent publication US9732119B2, “Immunomodulators” (BRISTOL-MYERS SQUIBB COMPANY, priority 2014, dated 2017).
Positions of bridges follow the written chain, without caps; N, C: chain ends. Non-standard residues stand in square brackets, D forms with d. Residues, ends and D or L forms follow the SMILES beside them. Trp(1-CH2COOH) = N[C@@H](Cc1cn(CC(=O)O)c2ccccc12)C(=O)O; Phe(4-F) = N[C@@H](Cc1ccc(F)cc1)C(=O)O; Hyp = O=C(O)[C@@H]1C[C@@H](O)CN1; Aad = N[C@@H](CCCC(=O)O)C(=O)O; NMeNle = CCCC[C@H](NC)C(=O)O; Pip = O=C(O)[C@@H]1CCCCN1; NMeA = CN[C@@H](C)C(=O)O; Orn = NCCC[C@H](N)C(=O)O; Dab = NCC[C@H](N)C(=O)O; Dap = NC[C@H](N)C(=O)O; AEA = NCCOCC(=O)O; Ava = NCCCCC(=O)O; GABA = NCCCC(=O)O

biological target: T1, PD-1-Ig binding to PD-L1-TVMV-His (PD-L1-His) (Homo sapiens, UniProt Q9NZQ7); experiment: PD-1/PD-L1 Homogenous Time-Resolved Fluorescence (HTRF) binding assay; details: PD-1-Ig (20 nM) / PD-L1-His (10 nM); range classes
T1 construct: hPDL1(19-239)-TVMV-His; made in house; host or cells: HEK293T cells
Method in brief: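 HTRF competition: compound pre-incubated 15 min with PD-L1-His (10 nM final), then PD-1-Ig (20 nM final) added for 15 min in dPBS, 0.1% BSA, 0.05% Tween-20. Detection with Eu-cryptate anti-Ig (1 nM) and APC anti-His (20 nM) antibodies.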

T1 sequence (Q9NZQ7 with tags, fused parts or gaps): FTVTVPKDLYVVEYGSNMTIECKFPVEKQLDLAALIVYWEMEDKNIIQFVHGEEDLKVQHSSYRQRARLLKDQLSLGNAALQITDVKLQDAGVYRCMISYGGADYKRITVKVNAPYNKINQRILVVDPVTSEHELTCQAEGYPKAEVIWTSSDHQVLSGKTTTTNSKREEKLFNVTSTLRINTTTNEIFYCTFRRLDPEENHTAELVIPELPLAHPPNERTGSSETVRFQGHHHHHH

Question: `CCCC[C@H]1C(=O)N(C)[C@@H](CCCC)C(=O)N[C@@H](CC(C)C)C(=O)NCCC[C@H](N)C(=O)N[C@@H](Cc2ccc(O)cc2)C(=O)N2CCCC[C@H]2C(=O)N[C@@H](CC(N)=O)C(=O)N2CCC[C@H]2C(=O)N[C@@H](CN)C(=O)N[C@@H](CC(C)C)C(=O)N2CCC[C@H]2C(=O)N[C@@H](Cc2c[nH]c3ccccc23)C(=O)N[C@@H](CCN)C(=O)N[C@@H](Cc2cn(CC(=O)O)c3ccccc23)C(=O)N1C` [Example 10511] (H-[Orn]Y[Pip]NP[Dap]LPW[Dab][Trp(1-CH2COOH)][NMeNle][NMeNle]L; lactam 1-C) was tested. Which IC50 did it give?
Answer: 100 to 10000 nM

Question: For `CCCC[C@H]1C(=O)N(C)[C@@H](CCCC)C(=O)N[C@@H](CC(C)C)C(=O)NCCC[C@H](N)C(=O)N[C@@H](Cc2ccc(OC)cc2)C(=O)N2CCCC[C@H]2C(=O)N[C@@H](CC(N)=O)C(=O)N2CCC[C@H]2C(=O)N[C@@H](CN)C(=O)N[C@@H](CC(C)C)C(=O)N2C[C@H](O)C[C@H]2C(=O)N[C@@H](Cc2c[nH]c3ccccc23)C(=O)N[C@@H](CCN)C(=O)N[C@@H](Cc2cn(CC(=O)O)c3ccccc23)C(=O)N1C` [Example 10518] (H-[Orn]Y(Me)[Pip]NP[Dap]L[Hyp]W[Dab][Trp(1-CH2COOH)][NMeNle][NMeNle]L; lactam 1-C), which IC50 is on record?
Answer: 10 to 99 nM

Question: `CCCC[C@H]1C(=O)N(C)[C@@H](CCCC)C(=O)N[C@@H](CC(C)C)C(=O)NCCCC(=O)NCC(=O)N[C@@H](Cc2ccc(O)cc2)C(=O)N(C)[C@@H](C)C(=O)N[C@@H](CC(N)=O)C(=O)N2CCC[C@H]2C(=O)N[C@@H](Cc2c[nH]cn2)C(=O)N[C@@H](CC(C)C)C(=O)N2C[C@H](O)C[C@H]2C(=O)N[C@@H](Cc2c[nH]c3ccccc23)C(=O)NCC(=O)N[C@@H](Cc2c[nH]c3ccccc23)C(=O)N1C` [Example 5005] (cyclo(GW[NMeNle][NMeNle]L[GABA]GY[NMeA]NPHL[Hyp]W)) was tested. Which IC50 did it give?
Answer: 100 to 10000 nM

Question: With `CCCC[C@H]1C(=O)N(C)[C@@H](CCCC)C(=O)N[C@@H](CC(C)C)C(=O)NCCOCC(=O)N[C@@H](Cc2ccc(O)cc2)C(=O)N(C)[C@@H](C)C(=O)N[C@@H](CC(N)=O)C(=O)N2CCC[C@H]2C(=O)N[C@@H](CN)C(=O)N[C@@H](CC(C)C)C(=O)N2C[C@H](O)C[C@H]2C(=O)N[C@@H](Cc2c[nH]c3ccccc23)C(=O)N[C@@H](CO)C(=O)N[C@@H](Cc2cn(CC(=O)O)c3ccccc23)C(=O)N1C` [Example 10503] (cyclo([AEA]Y[NMeA]NP[Dap]L[Hyp]WS[Trp(1-CH2COOH)][NMeNle][NMeNle]L)) as the molecule, how does the IC50 read?
Answer: 10 to 99 nM

Question: With `CCCC[C@H]1C(=O)N(C)[C@@H](CCCC)C(=O)N[C@@H](CC(C)C)C(=O)N[C@H](C(N)=O)COCC(=O)N[C@@H](Cc2ccc(O)cc2)C(=O)N2CCCC[C@H]2C(=O)N[C@@H](CC(N)=O)C(=O)N2CCC[C@H]2C(=O)N[C@@H](CN)C(=O)N[C@@H](CC(C)C)C(=O)N2C[C@H](O)C[C@H]2C(=O)N[C@@H](Cc2c[nH]c3ccccc23)C(=O)N[C@@H](CCN)C(=O)N[C@@H](Cc2cn(CC(=O)O)c3ccccc23)C(=O)N1C` [Example 10533] as the molecule, how does the IC50 read?
Answer: 1 to 9.9 nM

Question: For `CCCC[C@H]1C(=O)N(C)[C@@H](CCCC)C(=O)N[C@@H](CC(C)C)C(=O)N[C@H](C(=O)NCC(N)=O)CNCC(=O)N[C@@H](Cc2ccc(OC)cc2)C(=O)N(C)[C@@H](C)C(=O)N[C@@H](CC(N)=O)C(=O)N2CCC[C@H]2C(=O)N[C@@H](CN)C(=O)N[C@@H](CC(C)C)C(=O)N2C[C@H](O)C[C@H]2C(=O)N[C@@H](Cc2c[nH]c3ccccc23)C(=O)N[C@@H](CCN)C(=O)N[C@@H](Cc2cn(CC(=O)O)c3ccccc23)C(=O)N1C` [Example 1039], which IC50 is on record?
Answer: 1 to 9.9 nM

Question: How did the IC50 turn out when `CCCC[C@H]1C(=O)N(C)[C@@H](CCCC)C(=O)N[C@@H](CC(C)C)C(=O)NCCCCC(=O)N[C@@H](Cc2ccc(OC)cc2)C(=O)N2CCCC[C@H]2C(=O)N[C@@H](CC(=O)O)C(=O)N2CCC[C@H]2C(=O)N[C@@H](CN)C(=O)N[C@@H](CC(C)C)C(=O)N2C[C@H](O)C[C@H]2C(=O)N[C@@H](Cc2c[nH]c3ccccc23)C(=O)N[C@@H](CCN)C(=O)N[C@@H](Cc2cn(CC(=O)O)c3ccccc23)C(=O)N1C` [Example 10572] (cyclo([Ava]Y(Me)[Pip]DP[Dap]L[Hyp]W[Dab][Trp(1-CH2COOH)][NMeNle][NMeNle]L)) was run?
Answer: 1 to 9.9 nM

Question: How did the IC50 turn out when `CCCC[C@H]1C(=O)N(C)[C@@H](CCCC)C(=O)N[C@@H](CC(C)C)C(=O)N[C@H](C(N)=O)CCCC(=O)N[C@@H](Cc2ccc(OC)cc2)C(=O)N2CCCC[C@H]2C(=O)N[C@@H](CC(N)=O)C(=O)N2CCC[C@H]2C(=O)N[C@@H](CN)C(=O)N[C@@H](CCC(=O)O)C(=O)N2C[C@H](O)C[C@H]2C(=O)N[C@@H](Cc2c[nH]c3ccccc23)C(=O)N[C@@H](CCN)C(=O)N[C@@H](Cc2cn(CC(=O)O)c3ccccc23)C(=O)N1C` [Example 10522] (Y(Me)[Pip]NP[Dap]E[Hyp]W[Dab][Trp(1-CH2COOH)][NMeNle][NMeNle]L[Aad]-NH2; lactam N-14) was run?
Answer: 10 to 99 nM

Question: `CCCC[C@H]1C(=O)N(C)[C@@H](CCCC)C(=O)N[C@@H](CC(C)C)C(=O)N[C@H](C(N)=O)CNCC(=O)N[C@@H](Cc2ccc(O)cc2)C(=O)N2CCCC[C@H]2C(=O)N[C@@H](CC(N)=O)C(=O)N2CCC[C@H]2C(=O)N[C@@H](Cc2c[nH]cn2)C(=O)N[C@@H](CC(=O)O)C(=O)N2C[C@H](O)C[C@H]2C(=O)N[C@@H](Cc2c[nH]c3ccccc23)C(=O)N[C@@H](C)C(=O)N[C@@H](Cc2cn(CC(=O)O)c3ccccc23)C(=O)N1C` [Example 9049] was tested. Which IC50 did it give?
Answer: 1 to 9.9 nM

Question: With `CCCC[C@H]1C(=O)N(C)[C@@H](CCCC)C(=O)N[C@@H](CC(C)C)C(=O)N[C@H](C(N)=O)CCCC(=O)N[C@@H](Cc2ccc(F)cc2)C(=O)N2CCCC[C@H]2C(=O)N[C@@H](CC(N)=O)C(=O)N2CCC[C@H]2C(=O)N[C@@H](CN)C(=O)N[C@@H](CCC(=O)O)C(=O)N2C[C@H](O)C[C@H]2C(=O)N[C@@H](Cc2c[nH]c3ccccc23)C(=O)N[C@@H](CCN)C(=O)N[C@@H](Cc2cn(CC(=O)O)c3ccccc23)C(=O)N1C` [Example 10532] ([Phe(4-F)][Pip]NP[Dap]E[Hyp]W[Dab][Trp(1-CH2COOH)][NMeNle][NMeNle]L[Aad]-NH2; lactam N-14) as the molecule, how does the IC50 read?
Answer: 1 to 9.9 nM

Question: With `CCCC[C@H]1C(=O)N(C)[C@@H](CCCC)C(=O)N[C@@H](CCC(=O)O)C(=O)N[C@H](C(=O)NCC(N)=O)CCNCC(=O)N[C@@H](Cc2ccc(O)cc2)C(=O)N(C)[C@@H](C)C(=O)N[C@@H](CC(=O)O)C(=O)N2CCC[C@H]2C(=O)N[C@@H](Cc2cnc[nH]2)C(=O)N[C@@H](CCC(N)=O)C(=O)N2C[C@H](O)C[C@H]2C(=O)N[C@@H](Cc2c[nH]c3ccccc23)C(=O)N[C@@H](CO)C(=O)N[C@@H](Cc2c[nH]c3ccccc23)C(=O)N1C` [Example 10023] as the molecule, how does the IC50 read?
Answer: 100 to 10000 nM

Question: How did the IC50 turn out when `CCCC[C@H]1C(=O)N(C)[C@@H](CCCC)C(=O)N[C@@H](CCC(=O)O)C(=O)N[C@H](C(N)=O)CNCC(=O)N[C@@H](Cc2ccc(F)cc2)C(=O)N2CCCC[C@H]2C(=O)N[C@@H](CC(N)=O)C(=O)N2CCC[C@H]2C(=O)N[C@@H](Cc2c[nH]cn2)C(=O)N[C@@H](CCC(=O)O)C(=O)N2C[C@H](O)C[C@H]2C(=O)N[C@@H](Cc2c[nH]c3ccccc23)C(=O)N[C@@H](C)C(=O)N[C@@H](Cc2cn(CC(=O)O)c3ccccc23)C(=O)N1C` [Example 9058] was run?
Answer: 1 to 9.9 nM
